From paper PMC6533151 (Neuron, 2019)
“And” between values parts separate entries of the source, which are not always exact repeats. Equal entries are not always repeated. Structures can show the parent of a compound that is named as a salt. Where two headings read alike, the source gives them in different places.

How the values were obtained:
GRABDA1m = settings: 50 μM DA
GRABNE sensors = assay: Ligand specificity and dynamic range of GRABNE sensors; assay type: cell-based, human; settings: for fluorescence response of the sensors to the compound: HEK293T cells, Fig. 2G
GRABNE1m [1] = target: T1, GRABNE1m (Homo sapiens, UniProt P08913); assay type: cell-based; settings: cultured neurons
GRABNE1h [2] = assay: GRABNE1h fluorescence in acute mouse hippocampal slices; assay type: cell-based, human
GRABNE1m [3] = settings: cultured hippocampal slices; puff application in ACSF
[4] = tested on: optogenetically evoked NE release in the LC (GRABNE1m fluorescence); assay type: in vivo, mouse; settings: i.p.; desipramine 10 mg/kg, yohimbine 2 mg/kg
[5] = tested on: NE dynamics in the lateral hypothalamus (GRABNE1m fluorescence); assay type: in vivo, mouse; settings: i.p.; atomoxetine 3 mg/kg, yohimbine 2 mg/kg, GBR 12909 10 mg/kg, sulpiride 50 mg/kg
[6] = tested on: looming-evoked NE release (GRABNE1m fluorescence); assay: Looming-evoked GRABNE1m fluorescence in optic tectum of zebrafish; assay type: in vivo; settings: for effect on looming-induced increase in GRABNE1m fluorescence: bath application 50 μM
GRABNE1m [7] = target: T1, GRABNE1m; assay type: cell-based
GRABNE1h [8] = target: GRABNE1h (Homo sapiens, UniProt P08913, T388K); assay: Fluorescence response of GRABNE1h expressed in HEK293T cells; assay type: cell-based
GRABNEmut [9] = assay: Fluorescence response of GRABNEmut expressed in HEK293T cells; assay type: cell-based, human; settings: 100 μM NE
GRABNE1h [10] = assay type: cell-based, human; settings: cultured hippocampal slices; puff application in ACSF
GRABNEmut [11] = assay type: cell-based, human; settings: cultured hippocampal slices
GRABNE1m [12] = assay: Bath application to Tg; assay type: in vivo, zebrafish
GRABNEmut [13] = assay: Bath application to zebrafish expressing GRABNEmut; assay type: in vivo; settings: 50 μM NE
GRABNE1h [14] = assay: Fluorescence response of GRABNE1h expressed in HEK293T cells; assay type: cell-based, human; settings: 10 μM yohimbine
GRABNE1m [15] = assay type: cell-based, human
[16] = tested on: release of endogenous NE in the LC (GRABNE1m fluorescence); assay type: cell-based, mouse

Molecule: NCCc1ccc(O)c(O)c1 [DA, Dopamine hydrochloride]
- fluorescence response to application (GRABDA1m): responded robustly

Molecule: CNC[C@H](O)c1ccc(O)c(O)c1 [Epi, Epinephrine hydrochloride]
- fluorescence response of the sensors to the compound (GRABNE sensors): responded
- fluorescence response to the compound (GRABNE1m [1]; compounds at 10 μM each): responded specifically
- fluorescence response to exogenous application (GRABNE1h [2]): evoked a fluorescence increase
- fluorescence response to exogenous application (GRABNE1m [3]): generated fluorescence increases

Molecule: Fc1ccc(C(OCCN2CCN(CCCc3ccccc3)CC2)c2ccc(F)cc2)cc1 [GBR 12909]
- effect on light-evoked GRABNE1m responses [4]: had no effect
- effect on GRABNE1m peak fluorescence during tail suspension [5]: had no effect
- effect on time to return to baseline after tail suspension [5]: had no effect

Molecule: Cc1ccc(OCC(O)C(C)NC(C)C)c2c1CCC2.Cl (stereo not drawn) [ICI 118,551, ICI 118,551 hydrochloride]
- effect on looming-induced increase in GRABNE1m fluorescence [6]: unaffected

Molecule: NC[C@H](O)c1ccc(O)c(O)c1 [NE, Norepinephrine]
- average τoff (GRABNE1m [7]; HEK293T cells, NE followed by 200 μM yohimbine, line scanning): 680 ms
- internalization of GRABNE1m (GRABNE1m [7]; saturating concentration of NE for 2 h): no internalization
- maximum ΔF/F0 (GRABNE1h [8]; 100 μM NE): ~ 130%
- mean on time constant after photolysis of NPEC-caged NE (GRABNE1h [8]; 405-nm uncaging, single exponential fit): 137 ms
- average τoff (GRABNE1h [8]; NE followed by 200 μM yohimbine, line scanning): 1890 ms
- increase in sensitivity to NE compared with GRABNE1m (GRABNE1h [8]; T6.34K point mutation): 10 fold
- fluorescence response to NE (GRABNEmut [9]): does not respond
- fluorescence response of the sensors to the compound (GRABNE sensors): responded
- peak ΔF/F0 response / dynamic range of the GRABNE sensor family (GRABNE sensors; saturating NE): 230% and ~ 200%
- fluorescence response to exogenous application (GRABNE1h [10]): evoked a robust increase in fluorescence
- fluorescence response to exogenous application (GRABNEmut [11]): no detectable effect
- fluorescence response to exogenous application (GRABNE1h [2]): evoked a fluorescence increase
- fluorescence response to bath application (GRABNE1m [12]; 50 μM, tectal neuropil, larvae): elicited a robust increase in fluorescence intensity
- fluorescence response to NE (GRABNEmut [13]): did not respond
- fluorescence response to exogenous application (GRABNE1m [3]): evoked a robust increase in fluorescence

Molecule: CNCC[C@@H](Oc1ccccc1C)c1ccccc1 [atomoxetine, Atomoxetine hydrochloride]
- effect on GRABNE1m peak fluorescence during tail suspension [5]: had no effect
- effect on time to return to baseline after tail suspension [5]: significantly slowed the return of signal to its baseline

Molecule: Brc1c(NC2=NCCN2)ccc2nccnc12 [brimonidine, UK 14,304 tartrate]
- fluorescence response of the sensors to the compound (GRABNE sensors): responded
- fluorescence response to exogenous application (GRABNE1h [2]): evoked a fluorescence increase
- fluorescence response to exogenous application (GRABNE1m [3]): generated fluorescence increases

Molecule: CNCCCN1c2ccccc2CCc2ccccc21 [desipramine, Desipramine hydrochloride]
- effect on decay of looming-induced fluorescence signal ([6]; desipramine 50 μM): slowed the decay of the fluorescence signal
- effect on basal GRABNE1m fluorescence [4]: slow progressive increase
- effect on light-evoked GRABNE1m responses [4]: increase in the magnitude and decay time

Molecule: CCc1cc(Cl)c(OC)c(C(=O)NC[C@@H]2CCCN2CC)c1O [eticlopiride, Eticlopride hydrochloride]
- effect on light-evoked GRABNE1m responses [4]: had no effect

Molecule: CCN1CCCC1CNC(=O)c1cc(S(N)(=O)=O)ccc1OC (stereo not drawn) [sulpiride, Sulpiride]
- effect on GRABNE1m peak fluorescence during tail suspension [5]: had no effect
- effect on time to return to baseline after tail suspension [5]: had no effect

Molecule: COC(=O)[C@@H]1[C@H]2C[C@H]3c4[nH]c5ccccc5c4CCN3C[C@@H]2CC[C@@H]1O [yohimbine, Yohimbine hydrochloride]
- block of uncaging-induced fluorescence increase (GRABNE1h [14]): blocked
- block of NE-induced fluorescence increase (GRABNE sensors; GRABNE-expressing HEK293T cells): blocked
- block of NE-induced fluorescence increase (GRABNE1m [15]): blocked completely
- block of agonist-evoked fluorescence increase (GRABNE1h [2]): blocked
- block of electrically evoked fluorescence increase (GRABNE1h [2]; stimuli at 20 Hz for 1 s): blocked
- block of GRABNE1m response to applied NE ([16]; 50 μM NE, 20 μM yohimbine, Fig. 4H): abolished
- effect on stimulation-induced fluorescence response ([16]; 20 pulses at 20 Hz, 4-AP 100 μM, Cd2+ 100 μM, desipramine 10 μM, yohimbine 20 μM): blocked the response
- block of NE-induced fluorescence increase (GRABNE1m [12]; 50 μM antagonist after 50 μM NE): blocked completely
- effect on looming-induced increase in GRABNE1m fluorescence [6]: blocked
- effect on basal GRABNE1m fluorescence [4]: abolished
- effect on light-evoked GRABNE1m responses [4]: abolished
- effect on GRABNE1m peak fluorescence during tail suspension [5]: decreased
- effect on time to return to baseline after tail suspension [5]: significantly accelerated the return to baseline

Molecule: pertussis toxin
- effect on NE-induced fluorescence response (GRABNE1m [7]; HEK293T cells, blocking G protein activation): had no effect
- effect on NE-induced fluorescence response (GRABNE1h [8]; blocking G protein activation): had no effect
- effect on NE-induced fluorescence change (GRABNE1m [1]; inhibiting G protein activation): did not affect
